Measured values: PMC10408569, “Recruitment of hexahydroquinoline as anticancer scaffold targeting inhibition of wild and mutants EGFR (EGFR^WT, EGFR^T790M, and EGFR^L858R)” (Journal of Enzyme Inhibition and Medicinal Chemistry, 2023)

Key:
Assay in all cases: NCI-60 anticancer screening (SRB)
Assay type in all cases: cell-based
CCRF-CEM = details: Homo sapiens, leukemia, one dose 10 μM, read-out: Growth Inhibition Percentage (GI %)
EKVX = details: Homo sapiens, NSC lung cancer, one dose 10 μM, read-out: Growth Inhibition Percentage (GI %)
HOP-92 = details: Homo sapiens; HOP-92, NSC lung cancer; one dose 10 μM; read-out: Growth Inhibition Percentage (GI %)
NCI-H460 = details: Homo sapiens; NCI-H460, NSC lung cancer; one dose 10 μM; read-out: Growth Inhibition Percentage (GI %)
COLO 205 = details: Homo sapiens; COLO 205, colon cancer; one dose 10 μM; read-out: Growth Inhibition Percentage (GI %)
HCT-116 = details: Homo sapiens; HCT-116, colon cancer; one dose 10 μM; read-out: Growth Inhibition Percentage (GI %)
HT29 = details: Homo sapiens, HT-29; HT29, colon cancer; one dose 10 μM; read-out: Growth Inhibition Percentage (GI %)
SF-295 = details: Homo sapiens; SF-295, CNS cancer; one dose 10 μM; read-out: Growth Inhibition Percentage (GI %)
SF-539 = details: Homo sapiens; SF-539, CNS cancer; one dose 10 μM; read-out: Growth Inhibition Percentage (GI %)
U251 = details: Homo sapiens, U-251; U251, CNS cancer; one dose 10 μM; read-out: Growth Inhibition Percentage (GI %)
MALME-3M = details: Homo sapiens, melanoma, one dose 10 μM, read-out: Growth Inhibition Percentage (GI %)
M14 = details: Homo sapiens; M14, melanoma; one dose 10 μM; read-out: Growth Inhibition Percentage (GI %)
SK-MEL-28 = details: Homo sapiens; SK-MEL-28, melanoma; one dose 10 μM; read-out: Growth Inhibition Percentage (GI %)
UACC-62 = details: Homo sapiens; UACC-62, melanoma; one dose 10 μM; read-out: Growth Inhibition Percentage (GI %)
IGROV1 = details: Homo sapiens, IGROV-1; IGROV1, ovarian cancer; one dose 10 μM; read-out: Growth Inhibition Percentage (GI %)
NCI/ADR-RES = details: Homo sapiens, ovarian cancer, one dose 10 μM, read-out: Growth Inhibition Percentage (GI %)
786-0 = details: Homo sapiens; 786-0, renal cancer; one dose 10 μM; read-out: Growth Inhibition Percentage (GI %)
A498 = details: Homo sapiens; A498, renal cancer; one dose 10 μM; read-out: Growth Inhibition Percentage (GI %)
CAKI-1 = details: Homo sapiens; CAKI-1, renal cancer; one dose 10 μM; read-out: Growth Inhibition Percentage (GI %)
SN 12C = details: Homo sapiens, SN12C; SN 12C, renal cancer; one dose 10 μM; read-out: Growth Inhibition Percentage (GI %)
TK-10 = details: Homo sapiens; TK-10, renal cancer; one dose 10 μM; read-out: Growth Inhibition Percentage (GI %)
UO-31 = details: Homo sapiens; UO-31, renal cancer; one dose 10 μM; read-out: Growth Inhibition Percentage (GI %)
PC-3 = details: Homo sapiens; PC-3, prostate cancer; one dose 10 μM; read-out: Growth Inhibition Percentage (GI %)
DU-145 = details: Homo sapiens; DU-145, prostate cancer; one dose 10 μM; read-out: Growth Inhibition Percentage (GI %)
MCF7 = details: Homo sapiens; MCF7, breast cancer; one dose 10 μM; read-out: Growth Inhibition Percentage (GI %)
MDA-MB-231 = details: Homo sapiens; MDA-MB-231, breast cancer; one dose 10 μM; read-out: Growth Inhibition Percentage (GI %)
HS 578T = details: Homo sapiens; HS 578T, breast cancer; one dose 10 μM; read-out: Growth Inhibition Percentage (GI %)
BT-549 = details: Homo sapiens; BT-549, breast cancer; one dose 10 μM; read-out: Growth Inhibition Percentage (GI %)

## CCOC(=O)C1=C(N)N(c2ccccc2)C2=C(C(=O)CC(C)(C)C2)C1c1ccc(OC)cc1 (racemic) [8f, (±)-Ethyl2-amino-4–(4-methoxyphenyl)-7,7-dimethyl-5-oxo-1-phenyl-1,4,5,6,7,8-hexahydroquinoline-3-carboxylate]
CCRF-CEM
  inhibition at 10 µM: < 10%
EKVX
  inhibition at 10 µM: < 10%
HOP-92
  inhibition at 10 µM: < 10%
NCI-H460
  inhibition at 10 µM: < 10%
COLO 205
  inhibition at 10 µM: < 10%
HCT-116
  inhibition at 10 µM: 14%
HT29
  inhibition at 10 µM: < 10%
SF-295
  inhibition at 10 µM: < 10%
SF-539
  inhibition at 10 µM: < 10%
U251
  inhibition at 10 µM: < 10%
MALME-3M
  inhibition at 10 µM: < 10%
M14
  inhibition at 10 µM: < 10%
SK-MEL-28
  inhibition at 10 µM: < 10%
UACC-62
  inhibition at 10 µM: < 10%
IGROV1
  inhibition at 10 µM: < 10%
NCI/ADR-RES
  inhibition at 10 µM: < 10%
786-0
  inhibition at 10 µM: 11%
A498
  inhibition at 10 µM: < 10%
CAKI-1
  inhibition at 10 µM: 22%
SN 12C
  inhibition at 10 µM: < 10%
TK-10
  inhibition at 10 µM: < 10%
UO-31
  inhibition at 10 µM: < 10%
PC-3
  inhibition at 10 µM: 18%
DU-145
  inhibition at 10 µM: < 10%
MCF7
  inhibition at 10 µM: 13%
MDA-MB-231
  inhibition at 10 µM: < 10%
HS 578T
  inhibition at 10 µM: 12%
BT-549
  inhibition at 10 µM: < 10%

## CCOC(=O)C1=C(N)N(c2ccc(C)cc2)C2=C(C(=O)CC(C)(C)C2)C1c1cccnc1 (racemic) [12e, (±)-Ethyl 2-amino-7,7-dimethyl-1–(4-methylphenyl)-5-oxo-1-phenyl-4-(pyrdin-3-yl)-1,4,5,6,7,8-hexahydroquinoline-3-carboxylate]
CCRF-CEM
  inhibition at 10 µM: < 10%
EKVX
  inhibition at 10 µM: < 10%
HOP-92
  inhibition at 10 µM: < 10%
NCI-H460
  inhibition at 10 µM: < 10%
COLO 205
  inhibition at 10 µM: < 10%
HCT-116
  inhibition at 10 µM: < 10%
HT29
  inhibition at 10 µM: < 10%
SF-295
  inhibition at 10 µM: < 10%
SF-539
  inhibition at 10 µM: < 10%
U251
  inhibition at 10 µM: < 10%
MALME-3M
  inhibition at 10 µM: < 10%
M14
  inhibition at 10 µM: < 10%
SK-MEL-28
  inhibition at 10 µM: < 10%
UACC-62
  inhibition at 10 µM: 14%
IGROV1
  inhibition at 10 µM: < 10%
NCI/ADR-RES
  inhibition at 10 µM: < 10%
786-0
  inhibition at 10 µM: < 10%
A498
  inhibition at 10 µM: < 10%
CAKI-1
  inhibition at 10 µM: < 10%
SN 12C
  inhibition at 10 µM: < 10%
TK-10
  inhibition at 10 µM: < 10%
UO-31
  inhibition at 10 µM: 23%
PC-3
  inhibition at 10 µM: 12%
DU-145
  inhibition at 10 µM: < 10%
MCF7
  inhibition at 10 µM: < 10%
MDA-MB-231
  inhibition at 10 µM: < 10%
HS 578T
  inhibition at 10 µM: < 10%
BT-549
  inhibition at 10 µM: < 10%

## CCOC(=O)C1=C(N)N(c2ccccc2)C2=C(C(=O)CC(C)(C)C2)C1c1ccc(N2CCOCC2)cc1 (racemic) [8l, (±)-Ethyl 2-amino-7,7-dimethyl-4-[4-(morpholin-4-yl)phenyl]-5-oxo-1-phenyl-1,4,5,6,7,8-hexahydroquinoline-3-carboxylate]
CCRF-CEM
  inhibition at 10 µM: < 10%
EKVX
  inhibition at 10 µM: < 10%
HOP-92
  inhibition at 10 µM: 12%
NCI-H460
  inhibition at 10 µM: < 10%
COLO 205
  inhibition at 10 µM: < 10%
HCT-116
  inhibition at 10 µM: < 10%
HT29
  inhibition at 10 µM: < 10%
SF-295
  inhibition at 10 µM: < 10%
SF-539
  inhibition at 10 µM: < 10%
U251
  inhibition at 10 µM: < 10%
MALME-3M
  inhibition at 10 µM: < 10%
M14
  inhibition at 10 µM: < 10%
SK-MEL-28
  inhibition at 10 µM: < 10%
UACC-62
  inhibition at 10 µM: 17%
IGROV1
  inhibition at 10 µM: < 10%
NCI/ADR-RES
  inhibition at 10 µM: < 10%
786-0
  inhibition at 10 µM: 16%
A498
  inhibition at 10 µM: < 10%
CAKI-1
  inhibition at 10 µM: 18%
SN 12C
  inhibition at 10 µM: < 10%
TK-10
  inhibition at 10 µM: < 10%
UO-31
  inhibition at 10 µM: < 10%
PC-3
  inhibition at 10 µM: < 10%
DU-145
  inhibition at 10 µM: < 10%
MCF7
  inhibition at 10 µM: < 10%
MDA-MB-231
  inhibition at 10 µM: < 10%
HS 578T
  inhibition at 10 µM: < 10%
BT-549
  inhibition at 10 µM: < 10%

## CCOC(=O)C1=C(N)N(c2ccc(Cl)cc2)C2=C(C(=O)CC(C)(C)C2)C1c1ccccn1 (racemic) [12c, (±)-Ethyl 2-amino-1–(4-chlorophenyl)-7,7-dimethyl-5-oxo-4-(pyridine-2-yl)-1,4,5,6,7,8-hexahydroquinoline-3-carboxylate]
CCRF-CEM
  inhibition at 10 µM: < 10%
EKVX
  inhibition at 10 µM: < 10%
HOP-92
  inhibition at 10 µM: < 10%
NCI-H460
  inhibition at 10 µM: < 10%
COLO 205
  inhibition at 10 µM: < 10%
HCT-116
  inhibition at 10 µM: 13%
HT29
  inhibition at 10 µM: 22%
SF-295
  inhibition at 10 µM: < 10%
SF-539
  inhibition at 10 µM: < 10%
U251
  inhibition at 10 µM: < 10%
MALME-3M
  inhibition at 10 µM: < 10%
M14
  inhibition at 10 µM: < 10%
SK-MEL-28
  inhibition at 10 µM: < 10%
UACC-62
  inhibition at 10 µM: 25%
IGROV1
  inhibition at 10 µM: < 10%
NCI/ADR-RES
  inhibition at 10 µM: < 10%
786-0
  inhibition at 10 µM: < 10%
A498
  inhibition at 10 µM: < 10%
CAKI-1
  inhibition at 10 µM: 11%
SN 12C
  inhibition at 10 µM: < 10%
TK-10
  inhibition at 10 µM: < 10%
UO-31
  inhibition at 10 µM: 23%
PC-3
  inhibition at 10 µM: 19%
DU-145
  inhibition at 10 µM: < 10%
MCF7
  inhibition at 10 µM: 11%
MDA-MB-231
  inhibition at 10 µM: < 10%
HS 578T
  inhibition at 10 µM: < 10%
BT-549
  inhibition at 10 µM: < 10%
